Assay results reported in ChEMBL document CHEMBL6182883, “Discovery of a series of novel 3-sulfonamido benzoic acid derivatives as promising P2Y14R antagonists for acute lung injury” (Eur J Med Chem, 2025).
In brackets after ≈: the same amount, converted by molar mass. Activity calls are given as the source filed them. The calls are words filed in the database; no cut-off is given here.

Key:
[1] = biological target: T1, P2Y purinoceptor 14 (Homo sapiens) (UniProt Q15391); assay: (§1) Binding affinity to P2Y14R (unknown origin) assessed as increase in response unit by surface plasmon resonance assay; details: filed as antagonist
T1 sequence (whole entry): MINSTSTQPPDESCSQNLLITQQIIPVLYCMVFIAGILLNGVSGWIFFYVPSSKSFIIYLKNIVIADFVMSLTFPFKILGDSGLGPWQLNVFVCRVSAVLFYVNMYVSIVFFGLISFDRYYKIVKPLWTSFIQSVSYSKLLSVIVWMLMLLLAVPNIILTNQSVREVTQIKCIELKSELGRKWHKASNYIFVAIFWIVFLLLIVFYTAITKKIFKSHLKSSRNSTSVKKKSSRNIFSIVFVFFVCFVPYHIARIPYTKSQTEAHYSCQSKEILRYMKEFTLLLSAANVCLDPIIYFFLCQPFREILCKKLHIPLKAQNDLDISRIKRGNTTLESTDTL

P2Y purinoceptor 14 [2] = biological target: T2, P2Y purinoceptor 14 (Homo sapiens, UniProt Q15391); assay: as §1
T2 sequence (Q15391 whole entry): T1 sequence (whole entry)

[3] = AUC (0 to 24 hrs) in SD […] at 5 mg/kg, iv; type: ADME, organism-based; details: in vivo
Mus musculus [4] = assay: Antiinflammatory activity in LPS-induced C57BL/6 mouse ALI model assessed as reduction in TNF-alpha expression in BALF at 2 to 6 mg/kg, po administered once daily via gavage for 7 days followed by endotoxin challenge at 1 hr post last dose and subsequent LPS stimulation and measured after 24 hrs by ELISA; type: functional, organism-based; details: dose 2-6 mg/kg, time 8.0 day
[5] = Oral bioavailability in SD […] at 10 mg/kg; type: ADME, organism-based; details: in vivo
Mus musculus [6] = assay: Antiinflammatory activity in LPS-induced C57BL/6 mouse ALI model assessed as reduction in MPO level in BALF at 6 mg/kg, po administered once daily via gavage for 7 days followed by endotoxin challenge at 1 hr post last dose and subsequent LPS stimulation and measured after 24 hrs by ELISA; type: functional, organism-based; details: time 8.0 day
Mus musculus [7] = assay: Antiinflammatory activity in LPS-induced C57BL/6 mouse ALI model assessed as reduction in neutrophil infiltration at 2 mg/kg, po administered once daily via gavage for 7 days followed by endotoxin challenge at 1 hr post last dose and subsequent LPS stimulation and measured after 24 hrs by H and E staining based histopathological assay; type: functional, organism-based; details: time 8.0 day
[8] = Tmax in SD […] at 10 mg/kg, po; type: ADME, organism-based; details: in vivo
[9] = Clearance in SD […] at 10 mg/kg, po; type: ADME, organism-based; details: in vivo
Mus musculus [10] = assay: Antiinflammatory activity in LPS-induced C57BL/6 mouse ALI model assessed as reduction in interstitial hemorrhage at 2 mg/kg, po administered once daily via gavage for 7 days followed by endotoxin challenge at 1 hr post last dose and subsequent LPS stimulation and measured after 24 hrs by H and E staining based histopathological assay; type: functional, organism-based; details: time 8.0 day
[11] = Cmax in SD […] at 5 mg/kg, iv; type: ADME, organism-based; details: in vivo
Mus musculus [12] = assay: Antiinflammatory activity in LPS-induced C57BL/6 mouse ALI model assessed as reduction in inflammatory response in lung administered once daily via oral gavage for 7 days followed by endotoxin challenge at 1 hr post last dose and subsequent LPS stimulation and measured after 24 hrs by H and E staining based histopathological assay; type: functional, organism-based; details: dose 2-6 mg/kg, time 8.0 day
[13] = AUC (0 to 24 hrs) in SD […] at 10 mg/kg, po; type: ADME, organism-based; details: in vivo
P2Y purinoceptor 14 [14] = biological target: T2, P2Y purinoceptor 14; assay: Antagonist activity at human P2Y14R expressed in HEK293 cells assessed as inhibition of UDPG-induced Ca2+ level by Fluo-4 dye based fluorescence assay; type: functional, cell-based
Mus musculus [15] = assay: Antiinflammatory activity in LPS-induced C57BL/6 mouse ALI model assessed as appearance of intact alveolar structures at 6 mg/kg, po administered once daily via gavage for 7 days followed by endotoxin challenge at 1 hr post last dose and subsequent LPS stimulation and measured after 24 hrs by H and E staining based histopathological assay; type: functional, organism-based; details: time 8.0 day
[16] = biological target: T1, P2Y purinoceptor 14 (Homo sapiens); assay: Antagonist activity at human P2Y14R expressed in HEK293 cells assessed as inhibition of UDPG-induced Ca2+ level at 5 uM by Fluo-4 dye based fluorescence assay relative to control; type: functional, cell-based; details: filed as antagonist
Mus musculus [17] = assay: Antiinflammatory activity in LPS-induced C57BL/6 mouse ALI model assessed as reduction in alveolar wall thickening at 6 mg/kg, po administered once daily via gavage for 7 days followed by endotoxin challenge at 1 hr post last dose and subsequent LPS stimulation and measured after 24 hrs by H and E staining based histopathological assay; type: functional, organism-based; details: time 8.0 day
[18] = Half life in SD […] at 5 mg/kg, iv; type: ADME, organism-based; details: in vivo
[19] = Half life in SD […] at 10 mg/kg, po; type: ADME, organism-based; details: in vivo
[20] = Aqueous solubility of the compound in pH 7.4 PBS buffer measured after 24 hrs by shake flask method; type: physicochemical
Mus musculus [21] = assay: Antiinflammatory activity in LPS-induced C57BL/6 mouse ALI model assessed as reduction in IL-1beta expression in BALF at 2 to 6 mg/kg, po administered once daily via gavage for 7 days followed by endotoxin challenge at 1 hr post last dose and subsequent LPS stimulation and measured after 24 hrs by ELISA; type: functional, organism-based; details: dose 2-6 mg/kg, time 8.0 day
[22] = Cmax in SD […] at 10 mg/kg, po; type: ADME, organism-based; details: in vivo
[23] = Aqueous solubility of the compound in pH 4 PBS buffer measured after 24 hrs by shake flask method; type: physicochemical
Mus musculus [24] = assay: Antiinflammatory activity in LPS-induced C57BL/6 mouse ALI model assessed as reduction in IL-6 expression in BALF at 2 to 6 mg/kg, po administered once daily via gavage for 7 days followed by endotoxin challenge at 1 hr post last dose and subsequent LPS stimulation and measured after 24 hrs by ELISA; type: functional, organism-based; details: dose 2-6 mg/kg, time 8.0 day
[25] = Tmax in SD […] at 5 mg/kg, iv; type: ADME, organism-based; details: in vivo
Mus musculus [26] = assay: Antiinflammatory activity in LPS-induced C57BL/6 mouse ALI model assessed as reduction in neutrophil infiltration at 6 mg/kg, po administered once daily via gavage for 7 days followed by endotoxin challenge at 1 hr post last dose and subsequent LPS stimulation and measured after 24 hrs by H and E staining based histopathological assay; type: functional, organism-based; details: time 8.0 day
Mus musculus [27] = assay: Antiinflammatory activity in LPS-induced C57BL/6 mouse ALI model assessed as reduction in interstitial hemorrhage at 6 mg/kg, po administered once daily via gavage for 7 days followed by endotoxin challenge at 1 hr post last dose and subsequent LPS stimulation and measured after 24 hrs by H and E staining based histopathological assay; type: functional, organism-based; details: time 8.0 day

## O=C(O)c1cc(NS(=O)(=O)CCc2ccc(C(F)(F)F)cc2)cc(-c2ccc(C3CCNCC3)cc2)c1
[1]
  Activity: Dose-dependent-effect
P2Y purinoceptor 14 [2]
  Kd: 1730 nM
[3]
  AUC: 1764 ng·h/mL
Mus musculus [4]
  Activity: Active
[5]
  bioavailability: 44%
Mus musculus [6]
  Activity: Active
Mus musculus [7]
  Activity: Active
[8]
  Tmax: 1.55 h
[9]
  CL/F: 18.6 mL/min/kg
Mus musculus [10]
  Activity: Not active; No Significant Interstitial Hemorrhage Observed
[11]
  Cmax: 731 ng/mL
Mus musculus [12]
  Activity: Dose-dependent-effect
[13]
  AUC(0-t): 2170 ng·h/mL
P2Y purinoceptor 14 [14]
  IC50: 5.6 nM
Mus musculus [15]
  Activity: Active
[16]
  inhibition: 99.6%
Mus musculus [17]
  Activity: Active
[18]
  half-life: 2.6 h
[19]
  half-life: 4.5 h
[20]
  solubility thermodynamic at 24 h: 108 µg/mL (≈ 203 µM)
Mus musculus [21]
  Activity: Active
[22]
  Cmax: 984 ng/mL
[23]
  solubility thermodynamic at 24 h: 127 µg/mL (≈ 238 µM)
Mus musculus [24]
  Activity: Active
[25]
  Tmax: 0.933 h
Mus musculus [26]
  Activity: Active
Mus musculus [27]
  Activity: Active; Substantial Reduction Observed
